Read-outs that look alike come from different tables or passages of the source.
Experiments:
[1] = test system: Human Breast Cancer Cells (MCF-7); assay: Cell growth inhibition by direct cell counting, MCF-7; format: cell-based; conditions: Homo sapiens, MCF7; MCF-7 cells; read-out: IG50 MCF-7
Procedure: (§1) Cells were taken out carefully from liquid nitrogen (Frozen pipes), and the cell freezing medium was thawed rapidly in water bath at 37° C. in order to rapidly pass through the temperature range of 0 to 5° C. within which the cell is easily damaged. Cell suspension was sucked with pipette gun and put it into centrifugal tubes under sterile condition, then was centrifuged for 3 min at 1300 r/min. The supernatant was gently discarded, and then added with a fresh medium to pipette and mix the cells. Finally, the cells were transferred into culture flasks, and cultured in a carbon dioxide incubator. The medium was changed once after 24 h.
(§2) After resuscitation, the cells were passed for 2-3 generations till they became stable, then they were used for the experiments. Each passage was based on the standard that all cells were spread over the bottoms of culture flasks.
(§3) Cell suspensions of a certain density (5×10^4 cells/mL) were plated at 24-well plate, 2 mL/well. Different concentration of drugs were added thereto, and incubated or some time. Then, cells were counted under the microscope. The ratio of total number of cells in test group to the total number of cells in control group is the cell growth inhibition rate under the concentration condition. The total number of cells in cell suspension, which were treated by drugs, could be counted by blood count board. Inhibition rate was calculated using the formula: […]
(§4) According to cell growth inhibition rate of each concentration of drugs, half inhibitory concentration could be calculated. (IG50 is the drug concentration, when cell growth inhibition rate was 50%.)
(§5) 7) The Results of the Growth Inhibitory Activity of the Compounds on Human Breast Cancer Cells (MCF-7) and Human Multidrug Resistant Breast Cancer Cells (MCF-7/Adr) were Listed in Table 3.

[2] = test system: Human Multidrug Resistant Breast Cancer Cells (MCF-7/Adr); assay: Cell growth inhibition by direct cell counting, MCF-7/Adr; format: cell-based; conditions: Homo sapiens, NCI/ADR-RES; MCF-7/Adr multidrug resistant cells; read-out: IG50 MCF-7/Adr
Procedure: as §1, §2, §3, §4, §5

[3] = test system: murine multidrug resistant leukemia cells (P388/Adr); assay: Cell growth inhibition by direct cell counting, P388/Adr; format: cell-based; conditions: read-out: IG50 P388/Adr
Procedure: as §1
(§6) Human leukemia cells (HL-60) were cultured in RPMI1640 medium containing 10% (v/v) fetal bovine serum, 100 U/mL penicillin and 100 μg/mL streptomycin. Murine leukemia cells (P388) and murine multidrug resistant leukemia cells (P388/Adr) were cultured in Eagle's minimum essential medium (MEM) containing 10% (v/v) fetal bovine serum, 100 U/mL penicillin and 100 μg/mL streptomycin. All of the above cell lines were incubated in 37° C. incubator with 5% carbon dioxide saturated humidity.
as §2, §3, §4
(§7) 6) The Results of the Growth Inhibitory Activity of the Compounds on Murine Leukemia Cells (P388) and Murine Multidrug Resistant Leukemia Cells (P388/Adr) were Listed in Table 2.

[4] = test system: Human leukemia cells (HL-60); assay: Cell growth inhibition by direct cell counting, HL-60; format: cell-based; conditions: HL-60 cells, drug concentration at 50% cell growth inhibition, read-out: IG50 (the source's name)
Procedure: as §1, §6, §2, §3, §4

[5] = test system: Murine leukemia cells (P388); assay: Cell growth inhibition by direct cell counting, P388; format: cell-based; conditions: read-out: IG50 P388
Procedure: as §1, §6, §2, §3, §4, §7

SMILES	IC50 [1] [nM]	melting point [°C]	IC50 [4] [nM]	other results
C[C@H]1[C@@H](Oc2ccc(Cn3ccnc3)cc2)O[C@@H]2O[C@]3(C)CC[C@H]4[C@H](C)CC[C@@H]1[C@@]24OO3 [Example 2, (10S)—O-[4-((imidazol-1-yl)methyl)phenyl]-dihydroartemisinin]	211	65 to 67	–	IC50 [2]: 631 nM
C[C@H]1[C@@H](Oc2ccc(CN3CCCCC3)cc2)O[C@@H]2O[C@]3(C)CC[C@H]4[C@H](C)CC[C@@H]1[C@@]24OO3 [Example 5, (10S)—O-[4-((piperidin-1-yl)methyl)phenyl]-dihydroartemisinin]	–	–	–	IC50 ([3]; Mus musculus): 804 nM; IC50 ([4]; Homo sapiens): 228 nM; IC50 ([5]; Mus musculus): 880 nM
CC1CCC2C(C)[C@@H](Oc3ccc(CN4CCC(N5CCCCC5)CC4)cc3)OC3OC4(C)CCC1C32OO4 (stereo partly drawn) [Example 6, (10S)—O-[4-[(4-(piperidinyl)piperidin-1-yl)methyl]phenyl]-dihydroartemisinin]	–	–	79	–
C[C@H]1[C@@H](Oc2ccc(CN3CCN(C)CC3)cc2)O[C@@H]2O[C@@]3(C)CC[C@H]4[C@H](C)CC[C@@H]1[C@@]24OO3 [Example 7, (10S)—O-[4-((4-methylpiperazin-1-yl)methyl)phenyl]-dihydroartemisinin]	–	–	120	–
CCN1CCN(Cc2ccc(O[C@H]3O[C@@H]4O[C@@]5(C)CC[C@H]6[C@H](C)CC[C@@H]([C@H]3C)[C@@]46OO5)cc2)CC1 [Example 8, (10S)—O-[4-((4-ethylpiperazin-1-yl)methyl)phenyl]-dihydroartemisinin]	–	–	83	–
CC1CCC2C(C)[C@@H](Oc3ccc(CN4CCN(C(C)C)CC4)cc3)OC3OC4(C)CCC1C32OO4 (stereo partly drawn) [Example 9, (10S)—O-[4-((4-isopropylpiperazin-1-yl)methyl)phenyl]-dihydroartemisinin]	–	–	71	–
CC1CCC2C(C)[C@@H](Oc3ccc(CN4CCN(c5ccccc5)CC4)cc3)OC3OC4(C)CCC1C32OO4 (stereo partly shown) [Example 10]	–	–	33	IC50 [3]: 88 nM; IC50 [5]: 70 nM
CC1CCC2C(C)C(Oc3ccc(CN4CCN(Cc5ccccc5)CC4)cc3)OC3OC4(C)CCC1C32OO4 [Example 16, 10-O-[4-[(4-benzylpiperazin-1-yl)methyl]phenyl]-(10S)-dihydroartemisinin]	–	–	105	–
CC1CCC2C(C)[C@@H](Oc3ccc(CN4CCN(CC=Cc5ccccc5)CC4)cc3)OC3OC4(C)CCC1C32OO4 (stereo partly drawn) [Example 17, 10-O-[4-[(4-cinnamylpiperazin-1-yl)methyl]phenyl]-(10S)-dihydroartemisinin]	–	–	59	–
C[C@H]1[C@@H](Oc2ccc(/C=C/C(=O)N3CCCC3)cc2)O[C@@H]2O[C@]3(C)CC[C@H]4[C@H](C)CC[C@@H]1[C@@]24OO3 [Example 20, (10S)—O-{4-[3-oxo-3-(pyrrolidin-1-yl)-1-(E)-propen-1-yl]phenyl}-dihydroartemisinin]	123	165 to 167	–	–
C[C@H]1[C@@H](Oc2ccc(/C=C/C(=O)N3CCN(C)CC3)cc2)O[C@@H]2O[C@@]3(C)CC[C@H]4[C@H](C)CC[C@@H]1[C@@]24OO3 [Example 24]	–	–	–	IC50 [3]: 918 nM; IC50 [5]: 299 nM
CCN1CCN(C(=O)/C=C/c2ccc(O[C@H]3OC4OC5(C)CCC6C(C)CCC(C3C)C46OO5)cc2)CC1 (stereo partly drawn) [Example 25, (10S)—O-{4-[3-oxo-3-(4-ethylpiperazin-1-yl)-1-(E)-propen-1-yl]phenyl}-dihydroartemisinin]	–	–	–	IC50 [3]: 223 nM; IC50 [5]: 152 nM
CC1CCC2C(C)[C@@H](Oc3ccc(/C=C/C(=O)N4CCN(c5ccccc5)CC4)cc3)OC3OC4(C)CCC1C32OO4 (stereo partly drawn) [Example 26, (10S)—O-{4-[3-oxo-3-(4-phenylpiperazin-1-yl)-1-(E)-propen-1-yl]phenyl}-dihydroartemisinin]	–	–	–	IC50 [3]: 153 nM; IC50 [5]: 145 nM
C[C@H]1[C@@H](Oc2ccc(/C=C/C(=O)Oc3ccc(/C=C/C(=O)N4CCCCC4)cc3)cc2)O[C@@H]2O[C@]3(C)CC[C@H]4[C@H](C)CC[C@@H]1[C@@]24OO3 [Example 31, 4-[(10S)-dihydroartemisinin-10-O-yl]phenyl-acrylic acid-4-[3-oxo-3-(piperidin-1-yl)-1-(E)-propen-1-yl]phenyl ester]	63	160 to 163	–	–
C[C@H]1[C@@H](Oc2ccc(CC(=O)N3CCCC3)cc2)O[C@@H]2O[C@]3(C)CC[C@@H]4[C@H](C)CC[C@@H]1[C@@]24OO3 [Example 33, (10S)—O-{4-[2-(pyrrolidin-1-yl)-2-oxoethyl]phenyl}-dihydroartemisinin]	3230	73 to 74	–	IC50 [2]: 122 nM
C[C@H]1[C@@H](Oc2ccc(CC(=O)Nc3ccccc3)cc2)O[C@@H]2O[C@]3(C)CC[C@@H]4[C@H](C)CC[C@@H]1[C@@]24OO3 [Example 47, (10S)—O-[4-(2-phenylamino-2-oxoethyl)phenyl]-dihydroartemisinin]	1550	172 to 173	–	IC50 [2]: 9.66 nM
